What was measured:
Mus musculus [1] = experiment: Increased Magnesium ion level in 0.5 M MgSO4 loaded ([…] p.o.) mice at a concentration of 25 mg/kg administered perorally; assay type: functional; conditions: route oral
Mus musculus [2] = experiment: Serum Magnesium ion level in 0.5 M MgSO4 loaded ([…] p.o.) mice at a concentration of 25 mg/kg administered perorally; assay type: functional, organism-based; design: dose 25 mg/kg
Mus musculus [3] = experiment: Increased Magnesium ion level in 0.5 M MgSO4 loaded ([…] p.o.) mice at a concentration of 5 mg/kg administered perorally; assay type: functional; conditions: route oral
Mus musculus [4] = experiment: Serum Magnesium ion level in 0.5 M MgSO4 loaded ([…] p.o.) mice at a concentration of 5 mg/kg administered perorally; assay type: functional, organism-based; design: dose 5 mg/kg
Mus musculus [5] = experiment: Increased Magnesium ion level in 0.5 M MgSO4 loaded ([…] p.o.) mice at a concentration of 12.5 mg/kg administered perorally; assay type: functional; conditions: route oral
Mus musculus [6] = experiment: Serum Magnesium ion level in 0.5 M MgSO4 loaded ([…] p.o.) mice at a concentration of 12.5 mg/kg administered perorally; assay type: functional, organism-based; design: dose 12.5 mg/kg
Mus musculus [7] = experiment: Serum Magnesium ion level in MgSO4 unloaded mice at a concentration of 25 mg/kg administered perorally; assay type: functional, organism-based; design: dose 25 mg/kg
Mus musculus [8] = experiment: Serum Magnesium ion level in 0.5 M MgSO4 loaded ([…] p.o.) mice at a concentration of 25 mg/kg administered perorally.; assay type: functional, organism-based; design: dose 25 mg/kg
Mus musculus [9] = experiment: Increased Magnesium ion level in 1.67 M MgSO4 loaded ([…] p.o.) mice pretreatment with STZ (100 mg/kg, i.v.) at a concentration of 50 mg/kg administered perorally; assay type: functional; conditions: route oral
Mus musculus [10] = experiment: Serum Magnesium ion level in 0.5 M MgSO4 loaded ([…] p.o.) mice pretreatment with Insulin (1U/kg, s.c) at a concentration of 12.5 mg/kg administered perorally; assay type: functional, organism-based; design: dose 12.5 mg/kg
Mus musculus [11] = experiment: Increased Magnesium ion level in 0.5 M MgSO4 loaded ([…]) mice pretreatment with Indomethacin (10 mg/kg, s.c) at a concentration of 12.5 mg/kg administered perorally; assay type: functional; conditions: route oral
Mus musculus [12] = experiment: Serum Magnesium ion level in 1.67 M MgSO4 loaded ([…] p.o.) mice pretreatment with STZ (100 mg/kg, i.v.) at a concentration of 50 mg/kg administered perorally; assay type: functional, organism-based; design: dose 50 mg/kg
Mus musculus [13] = experiment: Serum Magnesium ion level in 0.5 M MgSO4 loaded ([…] p.o.) mice pretreatment with Indomethacin (10 mg/kg, s.c) at a concentration of 12.5 mg/kg administered perorally; assay type: functional, organism-based; design: dose 12.5 mg/kg
Mus musculus [14] = experiment: Serum Magnesium ion level in 1.67 M MgSO4 loaded ([…] p.o.) mice at a concentration of 50 mg/kg administered perorally; assay type: functional, organism-based; design: dose 50 mg/kg
Mus musculus [15] = experiment: Increased Magnesium ion level in 0.5 M MgSO4 loaded ([…] p.o.) mice pretreatment with Insulin (1U/kg, s.c) at a concentration of 12.5 mg/kg administered perorally; assay type: functional; conditions: route oral
Mus musculus [16] = experiment: Increased Magnesium ion level in 1.67 M MgSO4 loaded ([…] p.o.) mice at a concentration of 50 mg/kg administered perorally; assay type: functional; conditions: route oral

Row | SMILES | Increase (Mus musculus [1]) [%] | Serum Mg2+ level (Mus musculus [2]) | Increase (Mus musculus [3]) [%] | Serum Mg2+ level (Mus musculus [4]) | Increase (Mus musculus [5]) [%] | Serum Mg2+ level (Mus musculus [6]) | Serum Mg2+ level (Mus musculus [7]) | Serum Mg2+ level (Mus musculus [8]) | Increase (Mus musculus [9]) [%] | Serum Mg2+ level (Mus musculus [10]) | Increase (Mus musculus [11]) [%] | Serum Mg2+ level (Mus musculus [12]) | Serum Mg2+ level (Mus musculus [13]) | Serum Mg2+ level (Mus musculus [14]) | Increase (Mus musculus [15]) [%] | Increase (Mus musculus [16]) [%]
1 | CC1(C)CC2C3=CCC4[C@@]5(C)CC[C@H](O[C@@H]6OC(C(=O)O)C(O[C@@H]7OC(CO)C(O)[C@@H](O)[C@@H]7O)[C@@H](O)[C@@H]6O[C@@H]6OCC(O)[C@@H](O)[C@@H]6O)[C@](C)(CO)C5CC[C@@]4(C)[C@]3(C)C[C@@H](O)[C@@]2(CO)[C@@H](O)[C@@H]1O (stereo partly specified) | 3 | 3.4 |  |  |  |  |  |  |  |  |  |  |  |  |  | 
2 | C/C=C(\C)C(=O)O[C@H]1[C@H](OC(C)=O)[C@@]2(CO)C(CC1(C)C)C1=CCC3[C@@]4(C)CC[C@H](O[C@@H]5OC(C(=O)O)C(O[C@@H]6OC(CO)C(O)[C@@H](O)[C@@H]6O)[C@@H](O)[C@@H]5O[C@@H]5OC(CO)C(O)[C@@H](O)[C@@H]5O)[C@](C)(CO)C4CC[C@@]3(C)[C@]1(C)C[C@H]2O (stereo partly specified) | 9.1 |  | 9.1 | 3.6 | 0 | 3.3 | 3.1 | 3.6 |  |  |  |  |  |  |  | 
3 | C/C=C(\C)C(=O)O[C@H]1[C@H](OC(C)=O)[C@@]2(CO)C(CC1(C)C)C1=CCC3[C@@]4(C)CC[C@H](O[C@@H]5O[C@H](C(=O)O)[C@@H](O[C@@H]6O[C@H](CO)[C@@H](O)[C@H](O)[C@H]6O)[C@H](O)[C@H]5O[C@@H]5OC[C@@H](O)[C@H](O)[C@H]5O)[C@](C)(CO)C4CC[C@@]3(C)[C@]1(C)C[C@H]2O (stereo partly specified) [AESCIN] | 12.5 | 3.6 | -6.3 | 3 | -3.1 | 3.1 | 3.1 |  |  |  |  |  |  |  |  | 
4 | C/C=C(/C)C(=O)O[C@H]1[C@H](OC(C)=O)[C@@]2(CO)C(CC1(C)C)C1=CCC3[C@@]4(C)CC[C@H](O[C@@H]5OC(C(=O)O)C(O[C@@H]6OC(CO)C(O)[C@@H](O)[C@@H]6O)[C@@H](O)[C@@H]5O[C@@H]5OC(CO)C(O)[C@@H](O)[C@@H]5O)[C@](C)(CO)C4CC[C@@]3(C)[C@]1(C)C[C@H]2O (stereo partly specified) | 24.2 | 4.1 | 12.1 | 3.7 | 18.2 | 3.9 | 3.1 |  | 26 | 5.1 | 34.4 | 6.3 | 4.3 | 7.9 | 30.8 | 38.6

Source: ChEMBL document CHEMBL1132096, “Structure-related enhancing activity of escins Ia, Ib, IIa and IIb on magnesium absorption in mice” (1999)
